Reference: ChEMBL document CHEMBL4219231, “Nε-Acryloyllysine Piperazides as Irreversible Inhibitors of Transglutaminase 2: Synthesis, Structure-Activity Relationships, and Pharmacokinetic Profiling” (J Med Chem, 2018)
The source made the active and inactive calls. The calls are words filed in the database; no cut-off is given here.

Tests used:
[1] = Inhibition of guinea pig TGase 2 using F-Cad/DMC as substrate preincubated for 30 mins followed by substrate addition measured at 30 secs interval over 900 secs by fluorescence anisotropy assay; set-up: species or system Cavia porcellus
in vitro = conditions: PAMPA
Description: Effective permeability of the compound by PAMPA assay

[2] = n-octanol-phosphate buffer partition coefficient, log D of compound at pH 7.4 by 19F NMR analysis; type: physicochemical
[3] = Chromatographic hydrophobicity index in immobilized artificial membrane at pH 7.4 by HPLC method; type: ADME, cell membranes
[4] = Membrane retention, RM of the compound; type: physicochemical
[5] = Metabolic stability in mouse liver microsomes assessed as parent compound remaining at 100 uM measured after 60 mins by HPLC-UV analysis; type: ADME, microsome; conditions: for Stability: microsomes, 1 h, 100 µM; for remaining at 1 h, 100 µM: liver microsomes, read-out: Stability
[6] = target: T1, Protein-glutamine gamma-glutamyltransferase (Homo sapiens, UniProt P21980); test: Irreversible inhibition of human TGase 2 using Z-Glu(HMC)-Gly-OH as substrate measured at 20 secs interval over 900 secs by fluorimetric assay
T1 sequence (P21980 whole entry): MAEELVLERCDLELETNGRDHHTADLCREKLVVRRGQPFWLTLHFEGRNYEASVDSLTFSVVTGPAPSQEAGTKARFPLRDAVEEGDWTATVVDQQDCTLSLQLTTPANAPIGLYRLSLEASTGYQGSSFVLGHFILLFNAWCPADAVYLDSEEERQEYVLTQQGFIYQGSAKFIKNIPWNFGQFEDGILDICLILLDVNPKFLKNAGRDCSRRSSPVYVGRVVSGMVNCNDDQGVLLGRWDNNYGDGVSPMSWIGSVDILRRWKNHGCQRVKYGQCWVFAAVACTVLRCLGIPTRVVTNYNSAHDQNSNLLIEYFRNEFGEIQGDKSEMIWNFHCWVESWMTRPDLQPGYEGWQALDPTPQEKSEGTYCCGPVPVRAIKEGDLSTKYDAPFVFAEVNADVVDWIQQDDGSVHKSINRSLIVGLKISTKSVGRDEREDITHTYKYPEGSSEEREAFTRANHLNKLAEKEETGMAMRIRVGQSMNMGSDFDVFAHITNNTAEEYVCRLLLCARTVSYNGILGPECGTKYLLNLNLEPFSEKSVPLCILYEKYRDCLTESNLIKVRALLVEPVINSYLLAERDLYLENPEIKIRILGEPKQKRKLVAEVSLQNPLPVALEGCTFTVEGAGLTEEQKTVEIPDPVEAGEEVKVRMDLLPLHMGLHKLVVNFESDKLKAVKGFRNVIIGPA

[7] = target: T1, Protein-glutamine gamma-glutamyltransferase; test: Inhibition of human TGase 2 using R-I-Cad/DMC as substrate preincubated for 5 mins followed by substrate addition measured at 30 secs interval over 900 secs by fluorescence anisotropy assay
[8] = target: T1, Protein-glutamine gamma-glutamyltransferase; test: Reversible inhibition of human TGase 2 using Z-Glu(HMC)-Gly-OH as substrate measured at 20 secs interval over 900 secs by fluorimetric assay
[9] = target: T2, Protein-glutamine gamma-glutamyltransferase (Homo sapiens) (UniProt P21980); test: Inhibition of human TGase 2 assessed as enzyme activity factor using Z-Glu(HMC)-Gly-OH as substrate at 5 to 100 nM preincubated for 40 mins followed by substrate addition measured over 300 secs by fluorimetric assay; set-up: scale not given: the % may be the effect or the level left
T2 sequence (whole entry): T1 sequence (P21980 whole entry)

[10] = target: T2, Protein-glutamine gamma-glutamyltransferase (Homo sapiens); test: Inhibition of human TGase 2 assessed as enzyme activity factor using R-I-Cad/DMC as substrate at 10 to 240 nM preincubated for 40 mins followed by substrate addition measured at 30 secs interval over 900 secs by fluorescence anisotropy assay; set-up: scale not given: the % may be the effect or the level left
Cavia porcellus = species on record: Cavia porcellus; test: Irreversible inhibition of guinea pig TGase 2 using F-Cad/DMC as substrate at 30 uM preincubated for 30 mins followed by 1:100 dilution of compound-enzyme pre-incubated mixture at 30 secs interval over 900 secs by fluorescence anisotropy assay
[11] = target: T1, Protein-glutamine gamma-glutamyltransferase; test: Inhibition of TGase 2 in human A375 cells using R-I-Cad/DMC as substrate preincubated for 5 mins followed by substrate addition measured at 30 secs interval over 900 secs by fluorescence anisotropy assay; type: cell-based

Structure (SMILES)	Papp (in vitro) [×10⁻⁶ cm/s]	CHI [3]	Rm [4] [%]	Ki [6] [µM]	further results
C=CC(=O)NCCCC[C@@H](NC(=O)Cc1ccccc1)C(=O)N1CCN(c2cccc(C)n2)CC1					IC50 [1]: 0.79 µM
NS(=O)(=O)c1cc2c(cc1Cl)NCNS2(=O)=O [HYDROCHLOROTHIAZIDE]	0.06				
C=CC(=O)NCCCC[C@H](NC(=O)Cc1ccccc1)C(=O)N1CCN(c2ccc(C(F)(F)F)nc2)CC1	8.98	31.8	11	6.77	logD [2]: 2.13; Stability [5]: Stable
C=CC(=O)NCCCC[C@H](NC(=O)c1ccc(F)cc1)C(=O)N1CCN(c2ccc([N+](=O)[O-])nc2)CC1	4.08	28.5	12	14	logD [2]: 2.21; Stability [5]: Stable
C=CC(=O)NCCCC[C@H](NC(=O)Cc1ccccc1)C(=O)N1CCN(c2cccc(Cl)n2)CC1					IC50 [7]: 0.18 µM; IC50 [1]: 0.16 µM; Ki [8]: 4.43 µM
CCN(CC)c1ccc2c(-c3ccccc3C(=O)N3CCC(C(=O)NCCCCCN)CC3)c3ccc(=[N+](CC)CC)cc-3oc2c1					Ki [7]: 6.81 µM; Ki [1]: 7.14 µM
C=CC(=O)NCCCC[C@H](NC(=O)Cc1ccccc1)C(=O)N1CCN(c2cccc(Br)n2)CC1					IC50 [7]: 0.22 µM; IC50 [1]: 0.2 µM; Ki [8]: 5.65 µM
NCCCCCNC(=S)Nc1ccc2c(c1)C(=O)OC21c2ccc(O)cc2Oc2cc(O)ccc21					Ki [1]: 9.15 µM
CCC(=O)NCCCC[C@H](NC(=O)Cc1ccccc1)C(=O)N1CCN(c2ccc([N+](=O)[O-])nc2)CC1					Ki [8]: 15 µM
C=CC(=O)NCCCC[C@H](NC(=O)Cc1ccccc1)C(=O)N1CCN(c2cccc(OCCF)n2)CC1					IC50 [7]: 0.39 µM; IC50 [1]: 0.27 µM; Ki [8]: 7.32 µM
C=CC(=O)NCCCC[C@H](NC(=O)Cc1ccccc1)C(=O)N1CCN(c2cccc(I)n2)CC1					IC50 [7]: 0.14 µM; Ki [8]: 2.92 µM
C=CC(=O)NCCCC[C@H](NC(=O)Cc1ccccc1)C(=O)N1CCN(c2ccccn2)CC1					IC50 [7]: 0.34 µM; IC50 [1]: 0.31 µM; Stability [5]: Unstable; Ki [8]: 8.42 µM
C=CC(=O)NCCCC[C@H](NC(=O)Cc1ccccc1)C(=O)N1CCN(S(=O)(=O)c2cccc3c(N(C)C)cccc23)CC1	7.68	37.7	38		
C=CC(=O)NCCCC[C@H](NC(=O)Cc1ccccc1)C(=O)N1CCN(c2cccc(-c3ccccc3)n2)CC1	21.9	39	64		IC50 [7]: 0.2 µM; IC50 [1]: 0.15 µM; Ki [8]: 7.76 µM
C=CC(=O)NCCCC[C@H](NC(=O)Cc1ccccc1)C(=O)N1CCN(c2ccc(F)nc2)CC1	3.54	26.8	4	10.9	logD [2]: 1.66
C=CC(=O)NCCCC[C@H](NC(=O)Cc1ccccc1)C(=O)N1CCN(c2ccncc2)CC1	0.51	25.4	31	2.55	Stability [5]: Stable
C=CC(=O)NCCCC[C@H](NC(=O)Cc1ccccc1)C(=O)N1CCN(c2ccc([N+](=O)[O-])nc2)CC1				2.45	IC50 [7]: 0.09 µM; Activity [9]: 74.4%; IC50 [1]: 0.15 µM; Activity [10]: 80%

Structure (SMILES)	Papp (in vitro) [×10⁻⁶ cm/s]	CHI [3]	Rm [4] [%]	Ki [6] [µM]	further results
COCCc1ccc(OCC(O)CNC(C)C)cc1 (stereo not given) [METOPROLOL]	4.04				
C=CC(=O)NCCCC[C@H](NC(=O)Cc1ccccc1F)C(=O)N1CCN(c2cccc([N+](=O)[O-])n2)CC1	8.74	30.7	12	1.98	logD [2]: 2.25
C=CC(=O)NCCCC[C@H](NC(=O)Cc1ccccc1)C(=O)N1CCN(c2ccc([N+](=O)[O-])cc2)CC1				2.52	
C=CC(=O)NCCCC[C@H](NC(=O)Cc1ccccc1)C(=O)N1CCN(c2ccc(C(N)=O)nc2)CC1				5.72	
C=CC(=O)NCCCC[C@H](NC(=O)Cc1ccccc1)C(=O)N1CCN(C(=O)c2ccc(F)cc2)CC1	3.05	25	-3	13.4	logD [2]: 1.6; remaining at 1 h, 100 µM [5]: 85%
C=CC(=O)NCCCC[C@H](NC(=O)Cc1ccccc1)C(=O)N1CCN(Cc2ccc(F)cc2)CC1	10.3	32	12	7.6	logD [2]: 2.65
C=CC(=O)NCCCC[C@H](NC(=O)Cc1ccc(I)cc1)C(=O)N1CCN(c2cccc(C)n2)CC1					IC50 [1]: 0.16 µM
C=CC(=O)NCCCC[C@H](NC(=O)Nc1ccccc1)C(=O)N1CCN(c2ccc([N+](=O)[O-])nc2)CC1				7.96	
C=CC(=O)NCCCC[C@H](NC(=O)Nc1ccc(F)cc1)C(=O)N1CCN(c2cccc(C)n2)CC1	12.5	34.3	11		logD [2]: 0.47; IC50 [1]: 0.46 µM
C=CC(=O)NCCCC[C@H](NC(=O)Cc1ccc(F)cc1)C(=O)N1CCN(c2ccc([N+](=O)[O-])nc2)CC1	1.97	28.3	9	5.02	logD [2]: 1.85; Stability [5]: Stable
C=CC(=O)NCCCC[C@H](NC(=O)Cc1ccccc1)C(=O)N1CCN(C(=O)c2ccc([N+](=O)[O-])cc2)CC1				7.71	
CCC(=O)NCCCC[C@H](NC(=O)Cc1ccccc1)C(=O)N1CCN(c2cccc(C)n2)CC1					Ki [8]: 64.3 µM
C=CC(=O)NCCCC[C@H](NC(=O)Cc1cccs1)C(=O)N1CCN(c2cccc(C)n2)CC1				5.56	
C=CC(=O)NCCCC[C@H](NC(=O)c1ccc(F)cc1)C(=O)N1CCN(c2cccc(C)n2)CC1	12.7	31.4	16		logD [2]: 0.28
C=CC(=O)NCCCC[C@H](NC(=O)Cc1ccccc1)C(=O)N1CCN(c2cccnc2)CC1				2.6	
C=CC(=O)NCCCC[C@H](NC(=O)C(F)(F)F)C(=O)N1CCN(c2cccc(-c3ccccc3)n2)CC1				14.3	
C=CC(=O)NCCCC[C@H](NC(=O)Cc1ccccc1)C(=O)N1CCN(c2ccc(C(=O)OC)nc2)CC1				7.12	

Second part, led by results:

Papp (in vitro) [×10⁻⁶ cm/s]	CHI [3]	Rm [4] [%]	Ki [6] [µM]	Structure (SMILES)	further results
12.5	30.9	24		C=CC(=O)NCCCC[C@H](NC(=O)Cc1cccc(F)c1)C(=O)N1CCN(c2cccc(C)n2)CC1	
11.4	32.4	10		C=CC(=O)NCCCC[C@H](NC(=O)Cc1ccc(F)cc1)C(=O)N1CCN(c2cccc(C)n2)CC1	logD [2]: 0.36
			7.55	C=CC(=O)NCCCC[C@H](NC(=O)Cc1ccccc1)C(=O)N1CCN(c2cccc(C)c2)CC1	
11.4	30.1	21	4.49	C=CC(=O)NCCCC[C@H](NC(=O)Cc1ccccc1F)C(=O)N1CCN(c2cccc(C)n2)CC1	
21.9	39.5	69		C=CC(=O)NCCCC[C@H](NC(=O)Cc1ccccc1)C(=O)N1CCN(c2cccc(C(C)(C)C)n2)CC1	IC50 [7]: 0.17 µM; Ki [8]: 3.5 µM
8.77	29.4	-1		C=CC(=O)NCCCC[C@H](NC(=O)Cc1ccccc1)C(=O)N1CCN(c2cccc(C)n2)CC1	inhibition (Cavia porcellus): Active; IC50 [7]: 0.31 µM; IC50 [1]: 0.27 µM; remaining at 1 h, 100 µM [5]: 62%; Ki [8]: 5.73 µM; IC50 [11]: 0.79 µM
